{"source": "ChEMBL document CHEMBL1201862", "about": "“PubChem BioAssay data set” (2004)", "assay_type_in_all_cases": "functional", "key": {"Melanocortin receptor 4": {"target": "Melanocortin receptor 4 (Homo sapiens, UniProt P32245)", "sequence (P32245 whole entry)": "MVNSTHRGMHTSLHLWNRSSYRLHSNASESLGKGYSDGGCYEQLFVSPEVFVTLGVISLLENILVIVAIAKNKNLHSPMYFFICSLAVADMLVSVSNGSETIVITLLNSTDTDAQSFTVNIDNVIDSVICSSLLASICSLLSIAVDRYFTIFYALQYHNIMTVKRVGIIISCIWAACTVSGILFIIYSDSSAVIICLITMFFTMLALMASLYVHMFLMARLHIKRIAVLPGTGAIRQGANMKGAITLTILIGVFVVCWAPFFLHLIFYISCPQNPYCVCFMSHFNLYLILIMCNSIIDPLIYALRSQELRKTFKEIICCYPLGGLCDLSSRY", "experiment": "MC4R antagonist potency on cAMP, dose response, cell-based, TR-FRET, biased antagonists (AID 602298);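 note: antagonist potency against agonist-stimulated cAMP production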"}, "Coagulation factor XII": {"target": "T1, Coagulation factor XII (Homo sapiens, UniProt P00748)", "T1 sequence (P00748 whole entry)": "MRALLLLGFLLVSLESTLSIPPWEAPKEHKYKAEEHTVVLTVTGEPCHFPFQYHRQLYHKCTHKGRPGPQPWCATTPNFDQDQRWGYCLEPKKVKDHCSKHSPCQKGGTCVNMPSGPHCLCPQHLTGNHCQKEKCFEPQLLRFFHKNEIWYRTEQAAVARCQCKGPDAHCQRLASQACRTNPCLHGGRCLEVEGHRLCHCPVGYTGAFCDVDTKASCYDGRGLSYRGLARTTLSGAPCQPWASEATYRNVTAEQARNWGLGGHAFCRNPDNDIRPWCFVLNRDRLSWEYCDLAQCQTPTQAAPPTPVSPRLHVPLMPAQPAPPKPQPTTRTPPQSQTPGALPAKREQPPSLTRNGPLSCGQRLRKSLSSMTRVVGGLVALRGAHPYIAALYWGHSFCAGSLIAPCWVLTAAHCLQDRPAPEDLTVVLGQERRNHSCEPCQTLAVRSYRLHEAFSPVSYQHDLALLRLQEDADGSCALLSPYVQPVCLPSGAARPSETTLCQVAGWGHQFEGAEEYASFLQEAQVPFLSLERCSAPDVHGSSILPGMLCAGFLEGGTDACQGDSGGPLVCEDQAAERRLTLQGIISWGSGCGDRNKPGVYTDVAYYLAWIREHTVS"}, "[1]": {"experiment": "nonselective inhibitors of cellular cAMP signaling, dose response, counter-screen for MC4R biased antagonist project, cell-based, TR-FRET cAMP detection (AID 602305);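 note: U2OS cells stimulated with forskolin near its EC80 as the cAMP inducer; potency is for inhibition of forskolin-stimulated cAMP signaling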"}, "[2]": {"target": "Ras and Rab interactor 1/Tyrosine-protein kinase ABL1 (Homo sapiens, UniProt P00519+Q13671)", "sequence (P00519 whole entry)": "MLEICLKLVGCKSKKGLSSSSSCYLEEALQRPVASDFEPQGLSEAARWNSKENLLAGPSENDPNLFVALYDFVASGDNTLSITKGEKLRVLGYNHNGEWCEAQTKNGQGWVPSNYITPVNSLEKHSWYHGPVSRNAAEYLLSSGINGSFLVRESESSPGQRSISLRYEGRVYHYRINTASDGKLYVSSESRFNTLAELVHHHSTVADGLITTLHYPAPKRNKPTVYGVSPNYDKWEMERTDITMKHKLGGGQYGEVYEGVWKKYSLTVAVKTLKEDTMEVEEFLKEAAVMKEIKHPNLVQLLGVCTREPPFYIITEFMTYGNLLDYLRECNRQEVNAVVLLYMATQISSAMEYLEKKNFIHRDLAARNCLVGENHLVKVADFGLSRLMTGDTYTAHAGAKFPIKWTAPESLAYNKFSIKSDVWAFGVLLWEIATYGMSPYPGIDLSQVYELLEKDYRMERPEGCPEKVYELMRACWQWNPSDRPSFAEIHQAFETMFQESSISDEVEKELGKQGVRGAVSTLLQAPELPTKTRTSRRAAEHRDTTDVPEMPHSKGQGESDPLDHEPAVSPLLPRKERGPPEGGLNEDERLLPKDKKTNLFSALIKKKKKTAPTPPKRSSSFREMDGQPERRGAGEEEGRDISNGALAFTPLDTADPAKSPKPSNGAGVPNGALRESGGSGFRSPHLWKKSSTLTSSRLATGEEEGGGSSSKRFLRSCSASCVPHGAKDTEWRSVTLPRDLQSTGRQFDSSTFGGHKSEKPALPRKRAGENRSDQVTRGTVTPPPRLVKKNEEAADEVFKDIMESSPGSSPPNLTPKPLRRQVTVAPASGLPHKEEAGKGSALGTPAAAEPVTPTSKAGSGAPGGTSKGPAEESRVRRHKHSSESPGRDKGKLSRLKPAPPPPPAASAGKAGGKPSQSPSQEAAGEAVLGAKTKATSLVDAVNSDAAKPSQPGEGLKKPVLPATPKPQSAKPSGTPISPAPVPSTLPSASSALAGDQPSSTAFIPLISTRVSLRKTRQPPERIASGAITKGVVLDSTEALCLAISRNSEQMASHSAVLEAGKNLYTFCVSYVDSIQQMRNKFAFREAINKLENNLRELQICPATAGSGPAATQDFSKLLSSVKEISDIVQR", "sequence (Q13671 whole entry)": "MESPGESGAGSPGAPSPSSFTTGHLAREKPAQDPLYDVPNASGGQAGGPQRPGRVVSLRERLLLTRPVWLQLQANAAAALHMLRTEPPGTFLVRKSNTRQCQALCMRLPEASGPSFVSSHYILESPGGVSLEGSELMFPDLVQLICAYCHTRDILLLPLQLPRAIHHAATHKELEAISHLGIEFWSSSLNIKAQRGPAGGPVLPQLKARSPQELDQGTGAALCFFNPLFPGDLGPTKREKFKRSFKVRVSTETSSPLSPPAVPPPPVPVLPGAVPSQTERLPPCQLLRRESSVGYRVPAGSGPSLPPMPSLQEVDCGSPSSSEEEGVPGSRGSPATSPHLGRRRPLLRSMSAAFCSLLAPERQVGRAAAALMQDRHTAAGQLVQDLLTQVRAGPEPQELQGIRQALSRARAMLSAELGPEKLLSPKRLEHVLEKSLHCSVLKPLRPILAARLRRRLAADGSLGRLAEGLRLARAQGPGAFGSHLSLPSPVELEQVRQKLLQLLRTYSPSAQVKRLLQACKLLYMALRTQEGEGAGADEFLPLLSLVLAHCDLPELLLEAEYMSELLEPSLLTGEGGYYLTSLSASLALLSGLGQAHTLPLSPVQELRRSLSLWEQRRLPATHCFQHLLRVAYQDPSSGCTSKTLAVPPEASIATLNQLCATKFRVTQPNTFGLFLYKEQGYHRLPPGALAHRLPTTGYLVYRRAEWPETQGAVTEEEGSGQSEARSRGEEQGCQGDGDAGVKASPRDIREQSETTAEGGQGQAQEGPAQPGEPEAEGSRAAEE"}, "[3]": {"experiment": "CAL PDZ domain peptide-binding inhibitors, dose response, biochemical, fluorescence polarization, untagged CAL PDZ, cherry-pick, set 2 (AID 602254)"}, "Aurora kinase A": {"target": "Aurora kinase A (Homo sapiens, UniProt O14965)", "sequence (O14965 whole entry)": "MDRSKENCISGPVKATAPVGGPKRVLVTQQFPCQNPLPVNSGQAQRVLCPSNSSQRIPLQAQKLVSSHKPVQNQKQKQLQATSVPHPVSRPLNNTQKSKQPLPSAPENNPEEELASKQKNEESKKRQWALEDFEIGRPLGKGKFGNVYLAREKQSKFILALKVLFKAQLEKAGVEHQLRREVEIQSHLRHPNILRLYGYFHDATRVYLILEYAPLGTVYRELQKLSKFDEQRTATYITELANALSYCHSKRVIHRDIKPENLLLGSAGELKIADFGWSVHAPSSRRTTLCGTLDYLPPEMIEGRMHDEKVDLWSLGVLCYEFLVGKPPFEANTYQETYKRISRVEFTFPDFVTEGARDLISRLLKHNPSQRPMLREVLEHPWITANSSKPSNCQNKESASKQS"}, "Aurora kinase B": {"target": "Aurora kinase B (Homo sapiens, UniProt Q96GD4)", "sequence (Q96GD4 whole entry)": "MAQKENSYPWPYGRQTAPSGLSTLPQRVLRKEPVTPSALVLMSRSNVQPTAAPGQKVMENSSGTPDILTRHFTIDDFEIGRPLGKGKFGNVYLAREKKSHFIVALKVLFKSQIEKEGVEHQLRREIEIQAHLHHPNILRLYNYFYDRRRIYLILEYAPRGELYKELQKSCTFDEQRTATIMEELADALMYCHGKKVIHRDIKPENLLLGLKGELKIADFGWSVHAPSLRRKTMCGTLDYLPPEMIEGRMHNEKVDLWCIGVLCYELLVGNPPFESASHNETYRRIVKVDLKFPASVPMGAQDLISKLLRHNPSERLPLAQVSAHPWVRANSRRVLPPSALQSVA"}, "[4]": {"target": "T2, Apoptotic protease-activating factor 1 (Homo sapiens, UniProt O14727)", "T2 sequence (O14727 whole entry)": "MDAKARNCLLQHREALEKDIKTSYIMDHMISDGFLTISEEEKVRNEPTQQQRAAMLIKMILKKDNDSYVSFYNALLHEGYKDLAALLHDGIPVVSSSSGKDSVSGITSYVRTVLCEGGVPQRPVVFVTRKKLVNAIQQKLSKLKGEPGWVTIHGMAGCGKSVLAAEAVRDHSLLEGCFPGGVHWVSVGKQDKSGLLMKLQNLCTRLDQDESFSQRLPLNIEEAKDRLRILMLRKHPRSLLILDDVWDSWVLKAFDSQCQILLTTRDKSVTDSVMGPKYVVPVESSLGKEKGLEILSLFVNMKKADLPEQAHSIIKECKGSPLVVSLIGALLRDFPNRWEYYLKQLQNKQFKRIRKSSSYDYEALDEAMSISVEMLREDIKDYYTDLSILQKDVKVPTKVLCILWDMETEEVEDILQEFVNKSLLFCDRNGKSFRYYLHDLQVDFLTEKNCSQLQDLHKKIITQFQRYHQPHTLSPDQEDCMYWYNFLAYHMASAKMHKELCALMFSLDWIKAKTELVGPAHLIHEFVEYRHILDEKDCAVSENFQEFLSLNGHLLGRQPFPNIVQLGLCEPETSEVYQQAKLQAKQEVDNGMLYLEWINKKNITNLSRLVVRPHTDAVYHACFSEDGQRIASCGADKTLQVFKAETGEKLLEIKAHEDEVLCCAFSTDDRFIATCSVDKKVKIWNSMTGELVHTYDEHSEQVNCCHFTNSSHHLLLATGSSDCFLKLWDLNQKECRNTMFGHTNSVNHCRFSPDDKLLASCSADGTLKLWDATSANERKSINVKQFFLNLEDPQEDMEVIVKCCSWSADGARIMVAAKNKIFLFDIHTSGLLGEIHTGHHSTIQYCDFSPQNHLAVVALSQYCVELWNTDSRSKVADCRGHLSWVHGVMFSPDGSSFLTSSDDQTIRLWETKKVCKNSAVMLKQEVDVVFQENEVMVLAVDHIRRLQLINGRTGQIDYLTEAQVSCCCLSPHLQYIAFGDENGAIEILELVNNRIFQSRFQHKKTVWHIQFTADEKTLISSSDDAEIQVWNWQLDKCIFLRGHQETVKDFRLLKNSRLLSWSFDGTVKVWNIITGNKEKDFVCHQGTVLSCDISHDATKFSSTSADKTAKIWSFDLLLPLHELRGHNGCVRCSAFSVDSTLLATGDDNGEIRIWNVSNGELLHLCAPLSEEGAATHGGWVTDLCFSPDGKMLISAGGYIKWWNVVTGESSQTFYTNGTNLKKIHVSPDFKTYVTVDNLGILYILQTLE", "experiment": "SAR analysis of small molecule Activators of Apaf-1 in a Fluorescent assay.", "details": "read-out: EC50_Mean"}, "[5]": {"target": "ALK tyrosine kinase receptor (Homo sapiens, UniProt Q9UM73)", "sequence (Q9UM73 whole entry)": "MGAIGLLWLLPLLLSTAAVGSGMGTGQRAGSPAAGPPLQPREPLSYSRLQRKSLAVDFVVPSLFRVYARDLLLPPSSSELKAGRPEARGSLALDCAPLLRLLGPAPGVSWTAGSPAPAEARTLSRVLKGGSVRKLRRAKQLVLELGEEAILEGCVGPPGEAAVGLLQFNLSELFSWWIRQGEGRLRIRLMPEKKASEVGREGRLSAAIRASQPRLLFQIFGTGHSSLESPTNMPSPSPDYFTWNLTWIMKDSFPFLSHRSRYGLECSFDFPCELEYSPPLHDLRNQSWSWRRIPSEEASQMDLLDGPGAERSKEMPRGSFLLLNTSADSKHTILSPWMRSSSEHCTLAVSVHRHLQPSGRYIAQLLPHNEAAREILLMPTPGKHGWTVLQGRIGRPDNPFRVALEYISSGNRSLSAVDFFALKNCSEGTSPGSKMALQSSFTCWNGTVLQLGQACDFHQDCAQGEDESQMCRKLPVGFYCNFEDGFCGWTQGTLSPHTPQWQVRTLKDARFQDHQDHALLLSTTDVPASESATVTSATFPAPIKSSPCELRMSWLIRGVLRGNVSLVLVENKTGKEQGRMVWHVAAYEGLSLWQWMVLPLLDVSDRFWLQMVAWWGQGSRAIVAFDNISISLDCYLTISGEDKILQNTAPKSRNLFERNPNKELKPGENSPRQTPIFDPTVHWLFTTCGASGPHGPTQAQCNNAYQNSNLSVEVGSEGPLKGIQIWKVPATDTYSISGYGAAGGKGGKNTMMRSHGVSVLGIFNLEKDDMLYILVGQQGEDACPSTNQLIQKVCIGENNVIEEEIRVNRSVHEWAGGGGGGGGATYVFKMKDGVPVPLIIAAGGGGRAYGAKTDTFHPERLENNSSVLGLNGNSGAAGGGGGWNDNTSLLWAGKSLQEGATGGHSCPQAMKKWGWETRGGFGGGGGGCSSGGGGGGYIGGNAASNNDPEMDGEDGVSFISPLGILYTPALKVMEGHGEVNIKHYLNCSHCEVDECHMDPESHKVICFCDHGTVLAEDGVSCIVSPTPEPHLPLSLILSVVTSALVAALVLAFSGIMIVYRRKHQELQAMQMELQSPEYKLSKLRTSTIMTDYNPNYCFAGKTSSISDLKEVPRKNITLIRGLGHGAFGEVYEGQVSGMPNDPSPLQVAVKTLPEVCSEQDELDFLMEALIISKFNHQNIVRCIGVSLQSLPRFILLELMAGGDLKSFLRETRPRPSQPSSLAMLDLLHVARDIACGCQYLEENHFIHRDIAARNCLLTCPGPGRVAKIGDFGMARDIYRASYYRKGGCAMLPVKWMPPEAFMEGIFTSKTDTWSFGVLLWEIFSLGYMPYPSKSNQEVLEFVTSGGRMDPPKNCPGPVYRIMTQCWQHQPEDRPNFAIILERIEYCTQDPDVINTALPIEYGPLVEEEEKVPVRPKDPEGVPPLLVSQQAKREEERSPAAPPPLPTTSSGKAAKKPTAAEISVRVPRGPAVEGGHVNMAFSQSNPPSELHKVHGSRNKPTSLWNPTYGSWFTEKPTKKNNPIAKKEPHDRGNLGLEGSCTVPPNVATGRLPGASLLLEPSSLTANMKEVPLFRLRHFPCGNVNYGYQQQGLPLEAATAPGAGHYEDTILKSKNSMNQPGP"}}, "note": "The source made the active and inactive calls.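 Throughout, for EC50 Mean: caspase-3 cleavage of fluorogenic Rh110 DEVD substrate downstream of apoptosome activation.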", "data": [{"smiles": "O=C(Nc1nnc(-c2ccccc2)s1)c1cc(S(=O)(=O)N2CCOCC2)c(Cl)cc1Cl", "values": [{"measurement": "IC50", "setting": "Melanocortin receptor 4", "result": "> 2.39 µM (active)"}, {"measurement": "IC50", "setting": "Coagulation factor XII", "result": "> 50 µM (inactive)"}, {"measurement": "IC50", "setting": "[1]", "result": "> 64.6 µM (inactive)"}]}, {"smiles": "COc1cc(C(=O)OCC(=O)Nc2ccc(S(=O)(=O)N3CCCC3)cc2)cc(OC)c1OC", "values": [{"measurement": "IC50", "setting": "[2]", "result": "12.4 µM (inactive)"}]}, {"smiles": "COc1ccccc1N(CCOc1ccccc1)S(=O)(=O)c1ccccc1", "values": [{"measurement": "AC50", "setting": "[3]", "result": "77.2 µM (active)"}]}, {"smiles": "CCc1cccc(NC(=O)Nc2ccc(-c3c(C)oc4ncnc(N)c34)cc2)c1", "values": [{"measurement": "Ki", "setting": "Aurora kinase A", "result": "0.158 µM (active)"}, {"measurement": "Ki", "setting": "Aurora kinase B", "result": "0.0158 µM (active)"}]}, {"smiles": "CCC(C)(C)c1ccc(O)c(N2CC(C(=O)O)CC2=O)c1", "note": "(stereo not given)", "values": [{"measurement": "EC50", "setting": "[4]", "result": "> 100 µM (inactive)"}]}, {"smiles": "CCc1cccc(NC(=O)Nc2ccc(-c3csc4c(-c5cnn(C)c5)cnc(N)c34)cc2)c1", "values": [{"measurement": "Ki", "setting": "Aurora kinase A", "result": "0.00794 µM (active)"}, {"measurement": "Ki", "setting": "[5]", "result": "0.0251 µM (active)"}]}]}
